Test results from PubChem BioAssay (NCI).
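Where inhibition never reached the appropriate level, the endpoint shown equals the highest concentration tested. Otherwise, values were interpolated linearly from a five-concentration, 48-hour dose response in 96-well plates. GI50 marks 50% less growth. TGI is the concentration that stops growth completely.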

Assays:
Assay in all cases: growth of human tumour cells (NCI), 48 h
SF-539 CNS = tested on: SF-539 CNS
CCRF-CEM leukemia = tested on: CCRF-CEM leukemia
UACC-62 melanoma = tested on: UACC-62 melanoma
SK-MEL-28 melanoma = tested on: SK-MEL-28 melanoma
NCI-H460 lung = tested on: NCI-H460 lung
A549 NSCLC = tested on: A549 NSCLC
HL-60(TB) leukemia = tested on: HL-60(TB) leukemia
ACHN renal = tested on: ACHN renal
T-47D breast = tested on: T-47D breast
DU-145 prostate = tested on: DU-145 prostate

SMILES | TGI (SF-539 CNS) [µM] | TGI (CCRF-CEM leukemia) [µM] | TGI (UACC-62 melanoma) [µM] | TGI (SK-MEL-28 melanoma) [µM] | TGI (NCI-H460 lung) [µM] | TGI (A549 NSCLC) [µM] | TGI (HL-60(TB) leukemia) [µM] | TGI (ACHN renal) [µM] | GI50 (SF-539 CNS) [nM] | GI50 (T-47D breast) [nM] | TGI (T-47D breast) [µM] | GI50 (UACC-62 melanoma) [nM] | GI50 (DU-145 prostate) [µM] | TGI (DU-145 prostate) [µM] | GI50 (SK-MEL-28 melanoma) [nM] | GI50 (NCI-H460 lung) [nM] | GI50 (ACHN renal) [nM] | GI50 (CCRF-CEM leukemia) [nM] | GI50 (A549 NSCLC) [nM] | GI50 (HL-60(TB) leukemia) [nM]
CCOC(=O)C1C(NC(N)=O)N(Cc2ccccc2)C(=O)N1Cc1ccccc1 (configuration not stated) | > 100 | > 100 | > 100 | > 100 | > 100 | > 100 | > 100 | > 100 |  |  |  |  |  |  |  |  |  |  |  | 
c1cc(OCCCCCOc2cccc(-c3nc4ccccc4[nH]3)c2)cc(-c2nc3ccccc3[nH]2)c1 | > 100 |  | > 100 | > 100 | > 100 |  |  | 46.2 | 5080 | 458 | 3.18 | 2830 | 3.27 | > 100 | 2820 | 2600 | 2350 |  |  | 
OC[C@H]1C[C@](O)(c2ccc(F)cc2)[C@@H](c2ccc(F)cc2)O1 | > 100 | > 100 | > 100 | > 100 | > 100 | > 100 | > 100 | > 100 | > 100000 |  |  | > 100000 | > 100 | > 100 | > 100000 | > 100000 | > 100000 | > 100000 | > 100000 | > 100000
N#CC1(CCCCl)CCCCC1 | > 100 | > 100 | > 100 | > 100 | > 100 | > 100 | > 100 | > 100 |  |  |  |  |  |  |  |  |  |  |  | 
COc1ccc(-c2c(Nc3ccccn3)nc3c(C4=CCCCC4)c(-c4ccccc4)[nH]n3c2=O)cc1 | 18.6 | 6.58 | 16.2 | > 100 | 14 | > 100 |  | 24.9 | 2810 | 2220 | 17.3 | 2200 | 3.62 | > 100 | 4550 | 645 | 2000 | 1220 | 1940 | 
Cc1ccccc1NC(=O)CC(=O)NNCC(=O)Nc1nnc(-c2ccccc2)s1 | > 100 |  | > 100 | > 100 | > 100 | > 100 | 85.3 | > 100 |  |  |  |  |  |  |  |  |  |  |  | 
Cc1ccccc1NC(=O)C1C(=O)N(c2ccccc2C)C(=O)/C1=N\NC(N)=O (configuration not stated) | > 100 | > 100 | > 100 | > 100 | > 100 | > 100 | > 100 | > 100 |  |  |  |  |  |  |  |  |  |  |  | 
CC(C)(C)C1CC[C@H]2c3c([nH]c4ccccc34)[C@H]3C(=O)N(c4ccc(F)cc4)C(=O)[C@H]3[C@H]2C1 (some centres not stated) | 35.9 | 35.5 | 29.6 | 46.5 | 26.4 | 26.1 |  | 27.2 |  |  |  |  |  |  |  |  |  |  |  | 
O=[N+]([O-])c1ccc(/C=C/c2ccc(/C=C/c3ccc([N+](=O)[O-])cc3[N+](=O)[O-])cc2)c([N+](=O)[O-])c1 | > 100 | > 100 | > 100 | > 100 | > 100 | > 100 | > 100 | > 100 |  |  |  |  |  |  |  |  |  |  |  | 
CCCCC(C(=O)C(=O)Nc1ccccc1CC)C(=O)C(C)C (configuration not stated) | > 100 | > 100 | > 100 |  | > 100 | > 100 | > 100 | > 100 |  |  |  |  |  |  |  |  |  |  |  | 
C/C(=C\c1ccccc1)C(O)C(=O)c1nc2ccc(Cl)cc2[nH]c1=O (configuration not stated) | > 100 | 78.9 | > 100 | > 100 | > 100 | > 100 | > 100 | > 100 |  |  |  |  |  |  |  |  |  |  |  | 
O=C(O)c1cn(C2CC2)c2cc(N3CCN(C(=O)N(c4ccccc4)c4nc(-c5ccccc5)cs4)CC3)c(F)cc2c1=O |  | > 100 |  | > 100 | > 100 | > 100 |  |  |  | 2300 | > 100 |  | 0.521 | > 100 | 687 | 296 |  | 276 | 300 | 
COC(=O)C1CC(=O)O[C@H]1c1ccc(OC)c(OC)c1 (some centres not stated) | > 100 | > 100 | > 100 | > 100 | > 100 | > 100 | > 100 | > 100 |  |  |  |  |  |  |  |  |  |  |  | 
CN(C)c1ccc(/C=c2/sc3nc(=O)c(-c4ccccc4NC(=O)C(F)(F)F)nn3c2=O)cc1 | > 100 | > 100 | > 100 | > 100 | > 100 | > 100 |  | > 100 |  |  |  |  |  |  |  |  |  |  |  | 
CN(C)c1ccc(/C=C2\CCc3ccccc3C2=O)cc1Br | > 100 | > 100 | > 100 | > 100 | > 100 | > 100 | 58.5 | > 100 |  |  |  |  |  |  |  |  |  |  |  | 
O/N=C1/C(=C/c2ccc(OCc3ccccc3)cc2)CCCC1C(NO)c1ccc(OCc2ccccc2)cc1 (configuration not stated) | > 100 | > 100 |  | > 100 | > 100 | > 100 | > 100 | > 100 |  |  |  |  |  |  |  |  |  |  |  | 
CN(C)c1ccc(/C=N/N=C(\C#N)[S][Sn]([Cl])([c]2ccccc2)[c]2ccccc2)cc1 | 3.3 | 1.05 | 2.87 | 2.93 | 4.75 | 9.05 | 5.16 | 3.2 | 1700 |  |  | 1410 |  |  | 1480 | 2180 | 1720 | 281 | 2840 | 548
O=C1c2ccccc2N1C(=O)c1ccccc1[N+](=O)[O-] | > 100 | > 100 | > 100 | > 100 | > 100 | > 100 |  | > 100 |  |  | > 100 |  |  | > 100 |  |  |  |  |  | 
CC1(C)CC(=O)C(C(=O)Nc2cccs2)=C(O)C1 | > 100 | 95.3 | > 100 | > 100 | > 100 | > 100 | 57.7 | > 100 |  |  |  |  |  |  |  |  |  |  |  | 
N#Cc1c(CC(=O)O)cc(=O)n2c1[nH]c1ccccc12 | > 100 |  |  | > 100 | > 100 | > 100 | > 100 | > 100 |  |  |  |  |  |  |  |  |  |  |  | 
